The text below walks through data of patent EP0796243B1, “DIAMINOCYCLOBUTENE-3,4-DIONES” (AMERICAN HOME PRODUCTS CORPORATION, priority 1994, dated 1996).

The test concerns Isolated Rat Bladder Strips. In words: Inhibition of contractions in isolated rat bladder strips (KCl-enhanced contractile activity). The following applies: 0.5 h, concentration required to elicit 50% inhibition of pre-drug contractile activity, additional 15 mM KCl, 30 minute challenge per concentration, value ± spread as printed. Also on record: species or system Sprague-Dawley rats. An excerpt: Sprague-Dawley rats (150-200 g) are rendered unconscious by CO2 asphyxiation and then euthanized by cervical dislocation. The bladder is removed into warm (37 deg.C) physiological salt solution (PSS) of the following composition (mM): NaCl, 118.4; KCl, 4.7; CaCl2, 2.5; […]; NaHCO3, 24.9; KH2PO4, 1.2; glucose, 11.1; EDTA, 0.023; gassed with […]; pH 7.4. The bladder is opened and then cut into strips 1-2 mm in width and 7-10 mm in length. The strips are subsequently suspended in a 10 mL tissue bath under an initial resting tension of 1.5 g. The strips are held in place by two surgical clips one of which is attached to a fixed hook while the other is attached to an isometric force transducer. […] The carbachol is then washed out and the tissue allowed to relax to its resting level of activity. Following a further 30 min period of recovery an additional 15 mM KCl are introduced into the tissue bath. This increase in KCI concentration results in a large increase in the amplitude of spontaneous contractions (and initiation of contractions in previously quiescent strips) superimposed upon a small increase in basal tone. Following stabilization of this enhanced level of contractile activity, incremental increases in the concentration of test compound or vehicle are introduced into the tissue bath. Contractile activity is measured for each compound or vehicle concentration during the last minute of a 30 minute challenge.
The isometric force developed by the bladder strips is measured using a […] to elicit 50% inhibition of pre-drug contractile activity (IC50 concentration) is calculated from this concentration-response curve.

For the molecule `CCc1cc(C#N)ccc1N(C(C)=O)c1c(N[C@H](C)C(C)(C)C)c(=O)c1=O` [Example 30, (R)-(-)-N-(4-Cyano-2-ethyl-phenyl)-N-[3,4-dioxo-2-(1,2,2-trimethyl-propylamino)-cyclobut-1-enyl]-acetamide], the IC50 is 350 ± 100 nM.
Turning to `CCCC(=O)N(c1ccc(C#N)cc1CC)c1c(N[C@H](C)C(C)(C)C)c(=O)c1=O` [Example 27, (R)-(-)-N-(4-Cyano-2-ethyl-phenyl)-N-[3,4-dioxo-2-(1,2,2-trimethyl-propylamino)-cyclobut-1-enyl]-butyramide], the IC50 worked out at 170 ± 4 nM.
The figure for `CC(=O)N(c1ccc(C#N)cc1)c1c(NC(C)C(C)C)c(=O)c1=O` (stereo not drawn) [Example 13, N-(4-Cyano-phenyl)-N-[2-(1,2-dimethyl-propylamino)-3,4-dioxo-cyclobut-1-enyl]-acetamide] is 200 ± 100 nM; for `CCCCNc1c(N(C(C)=O)c2ccc(C#N)cc2)c(=O)c1=O` [Example 16, N-(2-Butylamino-3,4-dioxo-cyclobut-1-enyl)-N-(4-cyano-phenyl)-acetamide] it is 1240 ± 540 nM; for `CC(=O)N(c1ccc(C#N)cc1)c1c(N[C@H](C)C(C)(C)C)c(=O)c1=O` [Example 10, (R)-(-)-N-(4-Cyano-phenyl)-N-[3,4-dioxo-2-(1,2,2-trimethyl-propylamino)-cyclobut-1-enyl]-acetamide] it is 310 ± 50 nM.
The figure for `CC(C)CC(=O)N(c1ccncc1)c1c(N[C@H](C)C(C)(C)C)c(=O)c1=O` [Example 25, (R)-N-[3,4-Dioxo-2-(1,2,2-trimethyl-propylamino)-cyclobut-1-enyl]-3-methyl-N-(pyridin-4-yl)-butyramide] is 10800 ± 1600 nM; for `CC(C)C(=O)N(c1ccc(C#N)cc1)c1c(NC(C)C(C)(C)C)c(=O)c1=O` (stereo not drawn) [Example 6, N-(4-Cyano-phenyl)-N-[3,4-dioxo-2-(1,2,2-trimethyl-propylamino)-cyclobut-1-enyl]-isobutyramide] it is 570 ± 200 nM; for `CCC(=O)N(c1ccc(C#N)cc1)c1c(NC(C)C(C)(C)C)c(=O)c1=O` (stereo not drawn) [Example 1, N-(4-Cyano-phenyl)-N-[3,4-dioxo-2-(1,2,2-trimethyl-propylamino)-cyclobut-1-enyl]-propionamide] it is 500 nM.
The same measure for `CC(=O)N(c1cccc(C#N)c1)c1c(NC(C)C(C)(C)C)c(=O)c1=O` (stereo not drawn) [Example 14, N-(3-Cyano-phenyl)-N-[3,4-dioxo-2-(1,2,2-trimethyl-propylamino)-cyclobut-1-enyl]-acetamide]: 3200 ± 920 nM; for `CC(=O)N(c1ccc(C#N)cc1)c1c(NC(C)C(C)(C)C)c(=O)c1=O` (stereo not drawn) [Example 9, N-(4-Cyano-phenyl)-N-[3,4-dioxo-2-(1,2,2-trimethyl-propylamino)-cyclobut-1-enyl]-acetamide]: 230 ± 50 nM; for `CCc1cc(C#N)ccc1N(C(=O)C1CCCCC1)c1c(N[C@H](C)C(C)(C)C)c(=O)c1=O` [Example 32, (R)-(-)-N-(4-cyano-2-ethyl-phenyl)-N-[3,4-dioxo-2-(1,2,2-trimethyl-propylamino)-cyclobut-1-enyl]-cyclohexanecarboxamide]: 630 ± 65 nM.
Turning to `CCCCC(=O)N(c1ccncc1)c1c(N[C@H](C)C(C)(C)C)c(=O)c1=O` [Example 26, (R)-(-)-N-(3,4-Dioxo-2-(1,2,2-trimethyl-propylamino)-cyclobut-1-enyl]-N-(pyridin-4-yl)-pentylamide], the IC50 amounted to 4900 ± 1200 nM.
As to `CC(=O)N(c1ccncc1)c1c(NC2CC3CCC2C3)c(=O)c1=O` (racemic) [Example 21, (endo)-N-[2-(Bicyclo[2,2,1]hept-2-ylamino)-3,4-dioxo-cyclobut-1-enyl]-N-(pyridin-4-yl)-acetamide], the IC50 turned out to be 10600 nM.
In the case of `CC(Nc1c(N(C(=O)c2ccccc2)c2ccc(C#N)cc2)c(=O)c1=O)C(C)(C)C` (stereo not drawn) [Example 2, N-(4-Cyano-phenyl)-N-[3,4-dioxo-2-(1,2,2-trimethyl-propylamino)-cyclobut-1-enyl]-benzamide], the IC50 came out at 290 ± 40 nM.
The figure for `CC(Nc1c(N(C(=O)C=Cc2ccccc2)c2ccc(C#N)cc2)c(=O)c1=O)C(C)(C)C` (stereo not drawn) [Example 7, N-(4-Cyano-phenyl)-N-[3,4-dioxo-2-(1,2,2-trimethyl-propylamino)cyclobut-1-enyl]-3-phenyl-acrylamide] is 370 ± 80 nM.
In the case of `CC(=O)N(c1ccc(C#N)cc1)c1c(NC(C)C)c(=O)c1=O` [Example 11, N-(4-Cyano-phenyl)-N-[3,4-dioxo-2-isopropylamino-cyclobut-1-enyl]-acetamide], the IC50 stood at 9700 ± 4100 nM.
Turning to `CCC(=O)N(c1ccc(C#N)cc1CC)c1c(N[C@H](C)C(C)(C)C)c(=O)c1=O` [Example 28, (R)-N-(4-Cyano-2-ethyl-phenyl)-N-[3,4-dioxo-2-(1,2,2-trimethyl-propylamino)-cyclobut-1-enyl]-propionamide], the IC50 amounted to 220 ± 200 nM.
The figure for `CC(=O)N(c1cccnc1)c1c(N[C@H](C)C(C)(C)C)c(=O)c1=O` [Example 23, (R)-N-[3,4-Dioxo-2-(1,2,2-trimethyl-propylamino)-cyclobut-1-enyl]-N-(pyridin-3-yl)-acetamide] is 7200 ± 1600 nM; for `CC(=O)N(c1ccc(C#N)cc1)c1c(NC2CC3CCC2C3)c(=O)c1=O` (racemic) [Example 17, N-(endo)-[2-(Bicyclo[2,2,1]hept-2-ylamino)-3,4-dioxo-cyclobut-1-enyl]-N-(4-cyano-phenyl)-acetamide] it is 1840 ± 360 nM.
The same measure for `CC(=O)N(c1ccncc1)c1c(N[C@H](C)C(C)(C)C)c(=O)c1=O` [Example 24, (R)-N-[3,4-Dioxo-2-(1,2,2-trimethyl-propylamino)-cyclobut-1-enyl]-N-(pyridin-4-yl)-acetamide]: 2500 ± 200 nM; for `CC(=O)N(c1ccc(C#N)c(Cl)c1)c1c(N[C@H](C)C(C)(C)C)c(=O)c1=O` [Example 33, (R)-(-)-N-(3-Chloro-4-cyano-phenyl)-N-[3,4-dioxo-2-(1,2,2-trimethyl-propylamino)-cyclobut-1-enyl]-acetamide]: 190 ± 10 nM; for `C/C=C/C(=O)N(c1ccc(C#N)cc1CC)c1c(N[C@H](C)C(C)(C)C)c(=O)c1=O` [Example 29, (R)-(-)-N-(4-Cyano-2-ethylphenyl)-N-[3,4-dioxo-2-(1,2,2-trimethyl-propylamino)-cyclobut-1-enyl]-crotonamide]: 270 ± 20 nM.
The figure for `CCCCCC(=O)N(c1ccc(C#N)cc1)c1c(NC(C)C(C)(C)C)c(=O)c1=O` (stereo not drawn) [Example 5, Hexanoic acid (4-cyano-phenyl)-[3,4-dioxo-2-(1,2,2-trimethyl-propylamino)-cyclobut-1-enyl]-amide] is 350 ± 100 nM; for `CCCCC(=O)N(c1ccc(C#N)cc1CC)c1c(N[C@H](C)C(C)(C)C)c(=O)c1=O` [Example 31, (R)-(-)-N-(4-Cyano-2-ethyl-phenyl)-N-[3,4-dioxo-2-(1,2,2-trimethyl-propylamino)-cyclobut-1-enyl]-pentanamide] it is 610 ± 200 nM.

By IC50 is commonly meant the point on the concentration scale where inhibition reaches its midpoint.
